Measurements taken from PubChem BioAssay AID1418 (Emory University Molecular Libraries Screening Center, 2008).
pIC50: −log10 of the molar value. Activity calls are given as the source filed them. How the calls were made is not given here.

What follows are compounds tested against Induced myeloid leukemia cell differentiation protein Mcl-1 (Homo sapiens) (UniProt Q07820) (assay: blockers of Bid binding to Mcl-1 – biochemical, TR-FRET, dose response (AID 1418)). Conditions: Mcl-1/Bid peptide binding, TR-FRET (europium/Dy647), 2 hr.
Chain of Induced myeloid leukemia cell differentiation protein Mcl-1 (Homo sapiens) (Q07820 whole entry, looked up): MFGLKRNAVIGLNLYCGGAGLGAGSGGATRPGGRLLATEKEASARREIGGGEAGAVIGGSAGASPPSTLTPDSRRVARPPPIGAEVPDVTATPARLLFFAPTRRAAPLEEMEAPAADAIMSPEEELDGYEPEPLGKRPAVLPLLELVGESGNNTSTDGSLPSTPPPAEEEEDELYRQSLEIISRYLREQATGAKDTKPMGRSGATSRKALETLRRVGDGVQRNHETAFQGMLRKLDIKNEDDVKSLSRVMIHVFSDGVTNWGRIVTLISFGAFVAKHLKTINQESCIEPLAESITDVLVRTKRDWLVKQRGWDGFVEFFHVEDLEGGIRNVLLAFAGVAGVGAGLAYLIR

SMILES	IC50	pIC50
O=C(CSc1nnc(COc2cccc3cccnc23)o1)N1CCc2ccccc21	inactive	
NC(=S)n1[nH]c(-c2ccc([N+](=O)[O-])cc2)c(N=Nc2ccc(Cl)cc2)c1=O		6.25
CC(=O)N(/N=C/c1cccc(C)c1)c1nc(-c2ccc(Br)cc2)cs1	> 54 µM (inactive)	
C=CCc1ccc(OCCOCCOc2cccc3ccc(C)nc23)c(OC)c1	> 54 µM (inactive)	
Cc1ccnc(N/C=C(\C#N)c2nc(-c3cccc(Br)c3)cs2)c1		6.10
Cc1sc2ncnc(OCC(=O)Nc3ccc4c(c3)OCCO4)c2c1C	> 54 µM (inactive)	
O=C(CSc1nc2c(cnn2-c2ccc(F)cc2)c(=O)[nH]1)N1CCCc2ccccc21	> 54 µM (inactive)	
COc1ccc2[nH]c3c(c2c1)CCn1c-3nc2sc(C(=O)Nc3ccccc3)c(C)c2c1=O		5.72
COC(=O)c1ccc(COC(=O)c2ccc(CS(=O)(=O)c3ccc(C)cc3)cc2)cc1		5.89
COCCn1c(SCC(=O)NC(=O)NCc2ccccc2)nc2ccccc21	> 54 µM (inactive)	
CSc1nc(SCCO)c2sc3nc(-c4ccco4)c4c(c3c2n1)CC(C)(C)OC4		5.12
O=C(O)CCCCCN1C(=O)/C(=C\c2cn(-c3ccccc3)nc2-c2cccs2)SC1=S		5.03
O=C(Nc1ccc(CCC(=O)N2CCCC2)cc1)c1ncn[nH]1	> 54 µM (inactive)	
COc1cc(/C=C2/SC(=S)NC2=O)ccc1OS(=O)(=O)c1ccc(C)cc1		5.00
O=C(c1ccco1)N1C(=O)c2cccc3c(S(=O)(=O)N4CCCC4)ccc1c23	> 54 µM (inactive)	
O=C(N=Nc1c(O)[nH]c2ccc(Cl)cc12)c1cc(-c2cccs2)nc2ccccc12		6.24
Clc1ccccc1-c1nc2ccccc2[nH]1	> 54 µM (inactive)	
O=C(NCc1nnc(SCC(=O)N2CCOCC2)o1)c1c(F)cccc1Cl	> 54 µM (inactive)	
O=c1c2ccccc2nc2n1CCC2		6.28
Cn1c2ccccc2c(=O)c2c(=O)n(C3CCCCCC3)c(C3CCCCC3)nc21		5.64
CC1CCCC(C)N1CCNC(=O)C1CCN(S(=O)(=O)N2CCCCC2)CC1 (centres undefined)	> 54 µM (inactive)	
CC1(C)CC(=O)C(C(c2cccnc2)C2C(=O)CC(C)(C)CC2=O)C(=O)C1	> 54 µM (inactive)	
COC(=O)c1cccc(NC(=S)Nc2cccc(Cl)c2Cl)c1	> 54 µM (inactive)	
N/C(CS(=O)(=O)c1ccc(F)cc1)=N\O	> 54 µM (inactive)	
Cc1ccc(N=Nc2c(N)[nH]n3c(=O)cc(-c4ccccc4)nc23)cc1	inactive	

SMILES	IC50	pIC50
COc1cccc(NC(=O)C(=O)N/N=C/c2cc(C)n(-c3ccc(Cl)c(Cl)c3)c2C)c1	> 54 µM (inactive)	
COc1ccc(Cc2nnc(NC(=O)Cc3cccs3)s2)cc1OC	> 54 µM (inactive)	
CN1/C(=C\C=C2C(=O)NC(=S)NC2=O)C(C)(C)c2ccccc21	> 54 µM (inactive)	
C=CCOC(=O)/C=C/C(=O)NC(N)=O	> 54 µM (inactive)	
O=S(=O)(c1ccc(NC(=S)NCc2cccnc2)cc1)N1CCCCC1	> 54 µM (inactive)	
CC(NCc1ccc2c(c1)OCO2)C(=O)NC1CCCc2ccccc21 (centres undefined)	> 54 µM (inactive)	
COC(=O)c1ccc(-c2nc3cc(Cl)c(N)cc3s2)cc1	> 54 µM (inactive)	
O=C(COC(=O)CC(NC(=O)c1ccccc1Cl)c1ccccc1)Nc1cccc(F)c1 (centres undefined)	> 54 µM (inactive)	
Cc1ccc2cc(/C=N/NC(=O)CN3CCOCC3)c(Cl)nc2c1	> 54 µM (inactive)	
Fc1ccc(NC(=S)N/N=C/c2cccc(Br)c2)c(F)c1	> 54 µM (inactive)	
O=C(CN1C(=O)COc2ccccc21)N(Cc1ccc2c(c1)OCO2)CC1CCCO1 (centres undefined)	> 54 µM (inactive)	
Cc1n[nH]c(C)c1S(=O)(=O)N1CCN(c2ccccn2)CC1	> 54 µM (inactive)	
C=CCOC(=O)c1cc(-c2ccc(/C=C3\C(=O)NC(=O)C(C#N)=C3C)o2)ccc1Cl		6.28
Cc1cc(N)n(-c2ccc3ccccc3c2)n1	> 54 µM (inactive)	
CCN1C(=O)/C(=C/c2cccs2)SC1=Nc1ccc(OC)cc1	> 54 µM (inactive)	
Cc1ccc(-c2cn(-c3ccccc3)c(SCC(N)=O)n2)cc1C	> 54 µM (inactive)	
Cc1ccc(-c2noc(-c3ccccc3C(=O)N3CCN(C)CC3)n2)cc1	> 54 µM (inactive)	
CCCOP(=O)(OCCC)C(NC(=O)c1ccccc1)=C(Cl)Cl		6.28
COc1cccc(-c2csc(N3CCN(C(=S)Nc4cccc(Cl)c4)CC3)n2)c1	> 54 µM (inactive)	
COc1ccc(-c2nc(-n3c(C)c(C(C)=O)c(C(C)=O)c3C)sc2C)cc1	> 54 µM (inactive)	
O=C(N/N=C/c1cccc([N+](=O)[O-])c1)c1cc2c(ccc3ccccc32)o1		5.79
O=C(N/N=C/C=C/c1ccc([N+](=O)[O-])cc1)c1cccs1	inactive	
NC(=S)Nc1ccc(F)cc1F	> 54 µM (inactive)	
CCOc1cc(N2CCOCC2)c(OCC)cc1NC(=O)CN1CCc2ccccc2C1	> 54 µM (inactive)	
C#CCOCCOCCOCCNc1nc(N2CCN(C(=O)[C@H](CCC(=O)O)n3cc(C(N)CC(C)C)nn3)CC2)nc(N2CCN(C(=O)[C@H](CCC(=O)O)n3cc(C(N)[C@H](C)CC)nn3)CC2)n1 (some centres undefined)		6.00

SMILES	IC50	pIC50
CCN(CC)C(=O)CN(C)S(=O)(=O)c1cccc2nsnc12	> 54 µM (inactive)	
COc1cc(Cl)c(C)cc1NC(=O)CCCn1c(=O)oc2ccccc21	> 54 µM (inactive)	
Cc1cc(C)c2c(c1)C1C=CCC1C(c1ccc(S(=O)(=O)N3CCOCC3)cc1)N2 (centres undefined)	> 54 µM (inactive)	
C=CCc1cccc2cc(C(=O)Nc3ccc(S(=O)(=O)Nc4nnc(CC)s4)cc3)c(=O)oc12	> 54 µM (inactive)	
Cc1cccc(N=C2NC(=O)/C(=C/C=C/c3ccco3)S2)c1C	> 54 µM (inactive)	
O=C(O)CCCCCN1C(=O)/C(=C\c2ccc(-c3ccc(Cl)cc3)o2)SC1=S		4.78
CCOC(=O)c1ccc(NS(=O)(=O)N2CCCCCC2)cc1	> 54 µM (inactive)	
O=[N+]([O-])c1cc(Cl)cc(/C=N/NC(=S)Nc2ccc(S(=O)(=O)N3CCOCC3)cc2)c1O	> 54 µM (inactive)	
Cc1ccc([N+](=O)[O-])cc1N=Nc1c(-c2ccc([N+](=O)[O-])cc2)[nH]n(C(N)=S)c1=O		5.65
CCOC(=O)c1nc(C)sc1-c1ccnn1S(=O)(=O)c1ccc(C)cc1	> 54 µM (inactive)	
Cc1ccc(C(=O)NNC(=O)CCC(=O)Nc2cc(C)on2)cc1	> 54 µM (inactive)	
CN(C)S(=O)(=O)c1cccc(-c2nn(-c3ccccc3)cc2/C=C2\SC(=S)NC2=O)c1		5.00
O=C(O)CCCN1C(=O)/C(=C\c2ccc(-c3nc4ccccc4s3)o2)SC1=S		6.28
Nc1nc(SCc2ccc([N+](=O)[O-])cc2)nc2nc3c(cc12)CCCC3	> 54 µM (inactive)	
CN(C)CCCCOc1ccccc1-c1ccccc1	> 54 µM (inactive)	
O=c1c2ccccc2nc(CSc2nnnn2-c2ccccc2)n1-c1ccccc1		4.73
O=[N+]([O-])/C(C(Cl)=C(Cl)Cl)=C(\Nc1ccc(F)cc1)n1cncn1		4.76
CCOC(=O)c1sc(N2N=C(C)C(N=Nc3cccc(C)c3)C2=O)nc1C (centres undefined)		5.85
O=C(ONc1ccc(N=NC(=O)c2ccccc2O)cc1)c1ccccc1	inactive	
Cc1c(C(=O)N/N=C/c2ccc(-c3ccccc3[N+](=O)[O-])o2)sc(N)c1C#N		4.85
Cc1noc2ncnc(SCc3ccc(C(F)(F)F)cc3)c12	> 54 µM (inactive)	
COc1ccc(CCNC(=O)c2ccc(Cl)cc2Cl)cc1OC	> 54 µM (inactive)	
Fc1cc2nc(-c3ccncc3)[nH]c2cc1F	> 54 µM (inactive)	
O=S(=O)(c1ccccc1F)N1CCN(Cc2nc3ccccc3[nH]2)CC1	> 54 µM (inactive)	
COc1ccc2c(c1)c(=O)oc1cc3oc(C)c(C)c3cc12		4.77

SMILES	IC50	pIC50
NS(=O)(=O)c1ccc(CCNC(=O)C(=O)c2c[nH]c3ccccc23)cc1	> 54 µM (inactive)	
Fc1ccccc1NC(=S)N1CCN(Cc2ccc3c(c2)OCO3)CC1	> 54 µM (inactive)	
NNc1nc(-c2ccccc2)cs1		6.24
COc1cccc(NC(=O)CSc2nc3ccccc3n2C)c1	> 54 µM (inactive)	
Cc1cc(NC(=O)c2noc3c2CCc2ccccc2-3)no1	> 54 µM (inactive)	
NC(N)=NS(=O)(=O)c1ccc(NC(=S)NC(=O)c2sc3ccccc3c2Cl)cc1		5.98
NC(=S)n1[nH]c(-c2ccc([N+](=O)[O-])cc2)c(N=Nc2cccc([N+](=O)[O-])c2)c1=O		5.63
CCCc1cc(=O)[nH]c(SCC(=O)c2c(C)[nH]c3ccccc23)n1	> 54 µM (inactive)	
COc1ccc(-c2csc(NC(=S)NC(=O)/C=C/c3ccco3)n2)cc1OC	> 54 µM (inactive)	
CN(C)c1ccc(/C=c2\sc3nc(-c4ccccc4)nn3c2=O)cc1		5.29
CC(=O)Nc1ccc(S(=O)(=O)NCc2ccccn2)cc1	> 54 µM (inactive)	
CC1C(=O)CCN(C(C)C)C1C (centres undefined)	> 54 µM (inactive)	
CCNc1ccc2c(Cl)cc(=O)oc2c1	> 54 µM (inactive)	
COC(CNC(=O)c1ccc2nc(-c3cccs3)c(-c3cccs3)nc2c1)OC	> 54 µM (inactive)	
COc1ccc(CN2CCN(c3ccccc3F)CC2)cc1O	> 54 µM (inactive)	
COc1cccc(Oc2c(C)oc3c(CN4CCCC4)c(O)ccc3c2=O)c1	> 54 µM (inactive)	
CC1CCc2c(sc3ncn(CC(=O)N=Nc4c(O)[nH]c5ccccc45)c(=O)c23)C1 (centres undefined)		5.83
O=c1c2ccccc2sc2nc(C3CCCCC3)n(Cc3ccco3)c(=O)c12		4.72
O=C(CN1C(=O)S/C(=C\c2ccc(Cl)cc2)C1=O)NNC(=O)c1ccccc1O		5.13
COc1ccc(NC(C)C(=O)Nc2ccc(C#N)cc2)cc1Cl (centres undefined)	> 54 µM (inactive)	
O=[N+]([O-])c1ccc2c(c1)ncn2-c1ccccc1	> 54 µM (inactive)	
CCc1ccc(NC(=O)c2ccnc(C(C)(C)C)c2)cc1	> 54 µM (inactive)	
Nc1nc(Nc2cccc(F)c2)nc(N2CCOCC2)c1[N+](=O)[O-]	> 54 µM (inactive)	
C=CCn1c(SCC(=O)c2[nH]c(C)c(C(=O)OCC)c2C)nc2scc(-c3ccc(OC)c(OC)c3)c2c1=O		6.08
